Assays:
[1] = system: pEGFR(Tyr1068), pPRAS40(Thr 246) in HT29 cells; assay: Western blot of total and phosphorylated EGFR and PRAS40 in HT29 cells with EGF, 2 hours (FIG. 4); format: cell-based; conditions: cetuximab 1/75, encorafenib 0.05 μM
Text: C in the first lane stands for control, non-treated cell line sample. The second lane is the same control cell receiving EGF.
C in the first lane stands for control, non-treated cell line sample. Second lane is same control cell receiving EGF.

HT29 cells = assay: Emergence of resistance to encorafenib in HT29 cells (FIGS. 5-8); format: cell-based
Procedure: FIGS. 5A-B are graphs that show the emergence of resistance to Encorafenib in the HT29 cell line across an incubation time of 3 weeks and measured by the percentage of cell viability. Cells were treated with 5 μM Encorafenib (FIG. 5A) or 10 μM Encorafenib (FIG. 5B) and incubated with EGF at 0.0 ng/mL, 0.1 ng/mL, Ing/mL, and 10 ng/mL.
FIGS. 6A-B are graphs that show the emergence of resistance to Encorafenib in the HT29 cell line across an incubation time of 15 weeks and measured by the percentage of cell viability.
FIGS. 7A-B are graphs that show the emergence of resistance to Encorafenib in the HT29 cell line across an incubation time of 15 weeks and measured by the percentage of cell viability. […] All tests were conducted at 1.0 ng/ml EGF
FIGS. 8A-B are graphs that show the emergence of resistance to 10 μM Encorafenib in the HT29 cell line with an incubation time of 90 days and measured by the percentage of tumor cell-free wells.
The effect of cells incubated with 5 μM encorafenib and treated with different concentrations of EGF were tested for cell viability during 3 weeks of incubation.
Next, the effects on cells incubated with 0.1 ng/mL EGF were tested.
The effects on cells incubated with 1.0 ng/mL EGF were tested over 15 weeks. The same conditions were repeated as in FIGS. 6A-B with the only difference being the 10-fold increase in EGF (FIG. 7A).
Lastly, the effects of HT29 cells incubated with 0.1 ng/ml and 1.0 ng/mLEGF were tested over a course of 90 days (FIGS. 8A-B).

[2] = clinical data, BRAF V600E mutation-positive advanced melanoma; cited from earlier work
[3] = system: EGFR-mut NSCLC cell lines; conditions: cited from earlier work
[4] = 10 μM versus 5 μM encorafenib, EGF 0.0-10 ng/mL, 3 weeks

COC(=O)N[C@@H](C)CNc1nccc(-c2cn(C(C)C)nc2-c2cc(Cl)cc(NS(C)(=O)=O)c2F)n1 [Encorafenib]
inhibition of pPRASO [1]: did not inhibit
growth of positive cells (emergence of resistance) (HT29 cells; 0.1 ng/mL EGF, encorafenib 10 μM, 15 weeks): allows the growth of positive cells to a much greater extent
positive growth (emergence of resistance) (HT29 cells; 1.0 ng/mL EGF, 15 weeks): resistance
proliferation / percentage of viable cells (positive wells) (HT29 cells; [4]): substantially lower
time point at which resistance began (HT29 cells; [4]): earlier time point
proliferation / percentage of viable cells (positive wells) (HT29 cells; 10 μM versus 5 μM encorafenib, EGF 0.0-10 ng/mL, 3 weeks, listed as encorafenib): lower proliferation of cells than with 5 μM encorafenib, but not by much

CC(C)(C)c1nc(-c2cccc(NS(=O)(=O)c3c(F)cccc3F)c2F)c(-c2ccnc(N)n2)s1 [dabrafenib, Dabrafenib]
time to occurrence of resistance [2]: within six to seven months

C=CC(=O)Nc1cc(Nc2nccc(-c3cn(C)c4ccccc34)n2)c(OC)cc1N(C)CCN(C)C [osimertinib]
antiproliferative effects of the TKI when EGF is present [3]: significantly reduced

Source: patent US20260115267A1, “METHODS OF USING ANTI-EGF ANTIBODIES TO AUGMENT THE ACTIVITY OF BRAF AND KRAS INHIBITORS” (In3Bio Ltd., priority 2021, published 2026)
